PMC2790544 (Biochemistry, 2009)

Test system: Sec(GLP1TM4-5)R
Assay: cAMP response
Type: cell-based, human
Settings: COS cells, LANCE, basal 2.1±0.5

## CC(C)C[C@H](NC(=O)CNC(=O)[C@H](CCC(N)=O)NC(=O)[C@H](CC(C)C)NC(=O)[C@H](CC(C)C)NC(=O)[C@H](CCCNC(=N)N)NC(=O)[C@H](CCC(N)=O)NC(=O)[C@H](CC(C)C)NC(=O)[C@H](CCCNC(=N)N)NC(=O)[C@H](C)NC(=O)CNC(=O)[C@H](CCC(=O)O)NC(=O)[C@H](CCCNC(=N)N)NC(=O)[C@H](CC(C)C)NC(=O)[C@H](CCCNC(=N)N)NC(=O)[C@H](CO)NC(=O)[C@H](CC(C)C)NC(=O)[C@H](CCC(=O)O)NC(=O)[C@H](CO)NC(=O)[C@@H](NC(=O)[C@H](Cc1ccccc1)NC(=O)[C@@H](NC(=O)CNC(=O)[C@H](CC(=O)O)NC(=O)[C@H](CO)NC(=O)[C@@H](N)Cc1c[nH]cn1)[C@@H](C)O)[C@@H](C)O)C(=O)N[C@H](C(N)=O)C(C)C [secretin]
  maximal cAMP level (Emax): 149±15 picomoles per million cells
